In patent publication US20220370493A1, “METHODS AND COMPOSITIONS FOR GENERATING NITRIC OXIDE AND USES THEREOF” (THIRTY HOLDINGS LIMITED, priority 2019, published 2022):

Experiments:
[1] = tested on: SARS-CoV-2 clinical isolate; assay: SARS-CoV-2 virus yield reduction assay in Vero E6 cells; type: cell-based
Protocol: SARS-CoV-2 clinical isolate.
At time 0 hr, Vero E6 cells were infected with virus in presence of the formulation or controls and incubated for 1 hour. After this incubation period the inoculum was removed and the cells were washed. Fresh formulation or controls were then added to the washed cells. At 24 hours post infection, Vero E6 cell supernatants were harvested and titrated, and the virus titration was incubated for 6 days prior to readout to determine any virus yield reduction. Separate tests were performed at four MOIs including 3.0 and 0.3, although only those two MOIs were titrated. The readout was by crystal violet (cell monolayer) staining, followed by CPE scoring.

Row | Compound | in vitro antiviral action against SARS-CoV-2 ([1]; FIGS. 33 and 34, MOI 3.0 and 0.3) | cytotoxicity on the LDH assay (Vero E6 cells) | SARS-CoV-2 titre ([1]; FIG. 33, Run 1, MOI 3.0, 24 hours) | SARS-CoV-2 titre ([1]; FIG. 34, Run 2, MOI 3.0 and MOI 0.3, 48 hours)
1 | O=C(O)CC(O)(CC(=O)O)C(=O)O [citric acid pH 5.8, citric acid] | high in vitro antiviral action | low cytotoxicity | – | –
2 | CCN(CC)CCCC(C)Nc1ccnc2cc(Cl)ccc12 (stereo not shown) [chloroquine, Chloroquine phosphate] | – | – | limit of detection | limit of detection
